Test results: US20250041306A1, “TARGETED PROTEASE DEGRADATION (TED) PLATFORM” (EUBULUS BIOTHERAPEUTICS INC., priority 2021, published 2025)
Read-outs that look alike come from different tables or passages of the source.

Legend:
Type in all cases: cell-based
[1] = test system: Human Small Cell Lung Cancer H69; assay: Cell proliferation experiment (Alarm blue), H69
Procedure: (§1) The cells were cultured in conventional ways, and the cells should be passed for at least 2 generations before plating. Cells at the logarithmic growth phase were collected, prepared into single cell suspensions and counted. The concentration of cells was adjusted to desired concentration, and cells were inoculated into a 96-well cell culture plate at 100 μl per well. 100 μL of complete medium of the test compound were added to each well, 2 replicate wells for each concentration were set up, and diluted with a 5-fold gradient, and continued to culture for 72 h. All cells were subjected to EC50 test for corresponding samples.
(§2) The fluorescence intensity of each well was detected using the Alarm blue method, and IC50 was calculated.
(§3) IC50 was calculated according to the following formula:
(§4) [formula] • wherein Min, Max and Slope represent the minimum, maximum and slope respectively.

[2] = test system: Human Colon Cancer cells Colo205; assay: Cell proliferation experiment (Alarm blue), Colo205
Procedure: as §1, §2, §3, §4

[3] = test system: Human Small Cell Lung Cancer NCI-H82; assay: Cell proliferation experiment (Alarm blue), H82
Procedure: as §1, §2, §3, §4

[4] = test system: human gastric carcinoma cells N87; assay: Cell proliferation experiment (Alarm blue), N87
Procedure: as §1, §2, §3, §4

Human Colon Cancer HT-29 = assay: Cell proliferation experiment (Alarm blue), HT-29
Procedure: as §1, §2, §3, §4

[5] = H69 cells, 72 h culture, read-out: Anti cell proliferative activity EC50, H69
[6] = Colo205 cells, 72 h culture, read-out: Anti cell proliferative activity EC50, Colo205
[7] = H82 cells, 72 h culture, read-out: Anti cell proliferative activity EC50, H82
[8] = N87 cells, 72 h culture, read-out: Anti cell proliferative activity EC50, N87
[9] = HT-29 cells, 72 h culture, read-out: Anti cell proliferative activity EC50, HT-29
[10] = Homo sapiens, NCI-H69, H69 cells, 72 h culture, read-out: Anti cell proliferative activity EC50, H69
[11] = Homo sapiens, COLO 205, 72 h, Colo205 cells, 72 h culture, read-out: Anti cell proliferative activity EC50, Colo205
[12] = Homo sapiens, NCI-H82, 72 h, H82 cells, 72 h culture, read-out: Anti cell proliferative activity EC50, H82
[13] = Homo sapiens, 72 h, N87 cells, 72 h culture, read-out: Anti cell proliferative activity EC50, N87
[14] = Homo sapiens, HT-29 cells, 72 h culture, read-out: Anti cell proliferative activity EC50, HT-29

EC50 [1, 10] | EC50 [2, 11] | EC50 [3, 12] | EC50 [4, 13] | EC50 (Human Colon Cancer HT-29; [14]) | Compound | EC50 [1, 5] | EC50 [2, 6] | EC50 [3, 7] | EC50 [4, 8] | EC50 (Human Colon Cancer HT-29; [9]) | further results
 |  |  |  |  | CNC(=O)c1ccccc1Nc1nc(Nc2ccc(N3CCN(C(=O)N[C@H]4CC[C@@H](N(CCC#Cc5ccc6c(c5)CN(C5CCC(=O)NC5=O)C6=O)C(=O)OC(C)C(C)SSC[C@@H](NC(=O)CC[C@@H](NC(=O)c5ccc(NCc6cnc7nc(N)[nH]c(=O)c7n6)cc5)C(=O)O)C(=O)N[C@H](Cc5ccccc5)C(=O)N[C@H]5CSSC[C@@H](C(=O)N[C@H](CO)[C@@H](C)O)NC(=O)[C@H]([C@@H](C)O)NC(=O)[C@H](CCCCN)NC(=O)[C@@H](Cc6c[nH]c7ccccc67)NC(=O)[C@H](Cc6ccccc6)NC5=O)CC4)CC3)cc2)ncc1Cl (some centres unmarked) [UB-181267] | > 1000 nM | 519 nM | 168 nM | > 1000 nM | > 1000 nM | 
 |  |  |  |  | CC[C@@H]1C(=O)N(C)c2cnc(Nc3ccc(-c4cn([C@H]5CC[C@@H](N(CCOCCC#Cc6cccc7c6CN(C6CCC(=O)NC6=O)C7=O)C(=O)OC(C)C(C)SSC[C@H](NC(=O)CC[C@H](NC(=O)c6ccc(NCc7cnc8nc(N)[nH]c(=O)c8n7)cc6)C(=O)O)C(=O)N[C@H](Cc6ccccc6)C(=O)N[C@H]6CSSC[C@@H](C(=O)N[C@H](CO)[C@@H](C)O)NC(=O)[C@H]([C@@H](C)O)NC(=O)[C@H](CCCCN)NC(=O)[C@@H](Cc7c[nH]c8ccccc78)NC(=O)[C@H](Cc7ccccc7)NC6=O)CC5)nn4)cc3OC)nc2N1C1CCCC1 (some centres unmarked) [UB-181268] | > 1000 nM | > 1000 nM | > 1000 nM | > 1000 nM | > 1000 nM | 
> 1000 nM | 10.7 nM | 11.6 nM | 28.8 nM | 35.5 nM | CNC(=O)c1ccccc1Nc1nc(Nc2ccc(N3CCC(NCC#Cc4ccc5c(c4)CN(C4CCC(=O)NC4=O)C5=O)CC3)cc2)ncc1Cl (centres unmarked) [UB-181269] |  |  |  |  |  | 
454 nM | 218 nM | 147 nM | 258 nM | 951 nM | NC(=O)c1ccccc1Nc1nc(Nc2ccc(N3CCN(C(=O)N[C@H]4CC[C@@H](NC5CN(CC#Cc6ccc7c(c6)CN(C6CCC(=O)NC6=O)C7=O)C5)CC4)CC3)cc2)ncc1Cl (some centres unmarked) [UB-181270] |  |  |  |  |  | 
> 1000 nM | 21.1 nM | 19.1 nM | 23.1 nM | 332 nM | CNC(=O)c1ccccc1Nc1nc(Nc2ccc(N3CCN(C(=O)CNCCC#Cc4ccc5c(c4)CN(C4CCC(=O)NC4=O)C5=O)CC3)cc2)ncc1Cl (centres unmarked) [UB-181272] |  |  |  |  |  | 
375 nM | 21.4 nM | 21.6 nM | > 1000 nM | 56.2 nM | NC(=O)c1ccccc1Nc1nc(Nc2ccc(N3CCN(C(=O)CNCCC#Cc4ccc5c(c4)CN(C4CCC(=O)NC4=O)C5=O)CC3)cc2)ncc1Cl (centres unmarked) [UB-181273] |  |  |  |  |  | 
> 1000 nM | 49.4 nM | 27.7 nM | 18.2 nM | 522 nM | NC(=O)c1ccccc1Nc1nc(Nc2ccc(N3CCN(C(=O)NC4CCN(CCNCCC#Cc5ccc6c(c5)CN(C5CCC(=O)NC5=O)C6=O)CC4)CC3)cc2)ncc1Cl (centres unmarked) [UB-181274] |  |  |  |  |  | 
 |  |  |  |  | CC(OC(=O)N(CCC#Cc1ccc2c(c1)CN(C1CCC(=O)NC1=O)C2=O)C1CCC(NC(=O)N2CCN(c3ccc(Nc4ncc(Cl)c(Nc5ccccc5C(N)=O)n4)cc3)CC2)CC1)C(C)SSC[C@H](N)C(=O)N[C@H](Cc1ccccc1)C(=O)N[C@H]1CSSC[C@@H](C(=O)N[C@H](CO)[C@@H](C)O)NC(=O)[C@H]([C@@H](C)O)NC(=O)[C@H](CCCCN)NC(=O)[C@@H](Cc2c[nH]c3ccccc23)NC(=O)[C@H](Cc2ccccc2)NC1=O (some centres unmarked) [UB-181275] | > 1000 nM | 442 nM | 740 nM | > 1000 nM | 968 nM | 
> 1000 nM | 65.2 nM | 24.9 nM | > 1000 nM | 415 nM | NC(=O)c1ccccc1Nc1nc(Nc2ccc(C3CCN(C(=O)N[C@H]4C[C@@H](NCCC#Cc5ccc6c(c5)CN(C5CCC(=O)NC5=O)C6=O)C4)CC3)cc2)ncc1Cl (some centres unmarked) [UB-181279] |  |  |  |  |  | 
 |  |  |  |  | CC(OC(=O)N(CCC#Cc1ccc2c(c1)CN(C1CCC(=O)NC1=O)C2=O)C1CCC(NC(=O)N2CCN(c3ccc(Nc4ncc(Cl)c(Nc5ccccc5C(N)=O)n4)cc3)CC2)CC1)C(C)SSC[C@H](NC(=O)CCOCCOCCOCCOCCOCCOCCOCCOCCNC(=O)CC[C@H](NC(=O)c1ccc(NCc2cnc3nc(N)[nH]c(=O)c3n2)cc1)C(=O)O)C(=O)N[C@H](Cc1ccccc1)C(=O)N[C@H]1CSSC[C@@H](C(=O)N[C@H](CO)[C@@H](C)O)NC(=O)[C@H]([C@@H](C)O)NC(=O)[C@H](CCCCN)CC(=O)[C@@H](Cc2c[nH]c3ccccc23)NC(=O)[C@H](Cc2ccccc2)NC1=O (some centres unmarked) [UB-181280] | > 1000 nM | 1.9 nM | 647 nM | > 1000 nM | > 1000 nM | 
 |  |  |  |  | C[C@H](NC(=O)CCCCCN1C(=O)CC(SC[C@H](N)C(=O)N[C@@H](Cc2ccccc2)C(=O)N[C@H]2CSSC[C@@H](C(=O)N[C@H](CO)[C@@H](C)O)NC(=O)[C@H]([C@@H](C)O)NC(=O)[C@H](CCCCN)NC(=O)[C@@H](Cc3c[nH]c4ccccc34)NC(=O)[C@H](Cc3ccccc3)NC2=O)C1=O)C(=O)N[C@@H](C)C(=O)N[C@@H](CC(N)=O)C(=O)Nc1ccc(COC(=O)N(CCC#Cc2ccc3c(c2)CN(C2CCC(=O)NC2=O)C3=O)C2CCC(NC(=O)N3CCN(c4ccc(Nc5ncc(Cl)c(Nc6ccccc6C(N)=O)n5)cc4)CC3)CC2)cc1 (some centres unmarked) [UB-181285] | > 1000 nM | 62.1 nM | 125 nM | 50 nM | 528 nM | 
 |  |  |  |  | CC(C)c1cc(-c2nnc(O)n2-c2ccc3c(ccn3CCC3CCN(C(=O)NCCOCCOCCOCCOCCOCCOCCOCCOCCC(=O)N[C@@H](CSC4CC(=O)N(CCCCCC(=O)N[C@@H](C)C(=O)N[C@@H](C)C(=O)N[C@@H](CC(N)=O)C(=O)Nc5ccc(COC(=O)N(CCC#Cc6ccc7c(c6)CN(C6CCC(=O)NC6=O)C7=O)C6CCC(NC(=O)N7CCN(c8ccc(Nc9ncc(Cl)c(Nc%10ncc(Cl)c(Nc%11ccccc%11C(N)=O)n%10)n9)cc8)CC7)CC6)cc5)C4=O)C(=O)N[C@H](Cc4ccccc4)C(=O)N[C@H]4CSSC[C@@H](C(=O)N[C@H](CO)[C@@H](C)O)NC(=O)[C@H]([C@@H](C)O)NC(=O)[C@H](CCCCN)NC(=O)[C@@H](Cc5c[nH]c6ccccc56)NC(=O)[C@H](Cc5ccccc5)NC4=O)CC3)c2)c(O)cc1O (some centres unmarked) [UB-181289] | > 1000 nM | 621 nM | 410 nM | 698 nM | > 1000 nM | 
 |  |  |  |  | CC(C)c1cc(-c2nnc(O)n2-c2ccc3c(ccn3CCC3CCN(C(=O)CCSC4CC(=O)N(CCCCCC(=O)N[C@@H](C)C(=O)N[C@@H](C)C(=O)N[C@@H](CC(N)=O)C(=O)Nc5ccc(COC(=O)N(CCC#Cc6ccc7c(c6)CN(C6CCC(=O)NC6=O)C7=O)C6CCC(NC(=O)N7CCN(c8ccc(Nc9ncc(Cl)c(Nc%10ccccc%10C(N)=O)n9)cc8)CC7)CC6)cc5)C4=O)CC3)c2)c(O)cc1O.O=CO (some centres unmarked) [UB-181290] |  |  |  |  |  | Anti cell proliferative activity EC50, H69 ([1]; H69 cells, 72 h culture): insoluble; Anti cell proliferative activity EC50, Colo205 ([2]; Colo205 cells, 72 h culture): insoluble; Anti cell proliferative activity EC50, H82 ([3]; H82 cells, 72 h culture): insoluble; Anti cell proliferative activity EC50, N87 ([4]; N87 cells, 72 h culture): insoluble; Anti cell proliferative activity EC50, HT-29 (Human Colon Cancer HT-29; HT-29 cells, 72 h culture): insoluble
 |  |  |  |  | CC(C)c1cc(-c2nnc(O)n2-c2ccc3c(ccn3CCC3CCN(C(=O)CCSSCCOC(=O)N(CCC#Cc4ccc5c(c4)CN(C4CCC(=O)NC4=O)C5=O)C4CCC(NC(=O)N5CCN(c6ccc(Nc7ncc(Cl)c(Nc8ccccc8C(N)=O)n7)cc6)CC5)CC4)CC3)c2)c(O)cc1O (centres unmarked) [UB-181294] | > 1000 nM | 301 nM | 245 nM | 818 nM | 865 nM | 
 |  |  |  |  | CC(C)c1cc(-c2nnc(O)n2-c2ccc3c(ccn3CCC3CCN(C(=O)NCCOCCOCCOCCOCCOCCOCCOCCOCCC(=O)N[C@@H](CSSCCOC(=O)N(CCC#Cc4ccc5c(c4)CN(C4CCC(=O)NC4=O)C5=O)C4CCC(NC(=O)N5CCN(c6ccc(Nc7ncc(Cl)c(Nc8ccccc8C(N)=O)n7)cc6)CC5)CC4)C(=O)N[C@H](Cc4ccccc4)C(=O)N[C@H]4CSSC[C@@H](C(=O)N[C@H](CO)[C@@H](C)O)NC(=O)[C@H]([C@@H](C)O)NC(=O)[C@H](CCCCN)NC(=O)[C@@H](Cc5c[nH]c6ccccc56)NC(=O)[C@H](Cc5ccccc5)NC4=O)CC3)c2)c(O)cc1O (some centres unmarked) [UB-181297] | > 1000 nM | > 1000 nM | > 1000 nM | > 1000 nM | > 1000 nM | 
 |  |  |  |  | CNC(=O)c1ccccc1Nc1nc(Nc2ccc(N3CCN(C(=O)NC4CCC(N(CCC#Cc5ccc6c(c5)CN(C5CCC(=O)NC5=O)C6=O)C(=O)OCc5ccc(NC(=O)[C@H](CC(N)=O)NC(=O)[C@H](C)NC(=O)[C@H](C)NC(=O)CCCCCN6C(=O)CC(SC[C@H](NC(=O)[C@H](CC(=O)O)NC(=O)[C@H](CC(=O)O)NC(=O)[C@H](CCCNC(=N)N)NC(=O)[C@H](CC(=O)O)NC(=O)CCC(NC(=O)c7ccc(NCc8cnc9nc(N)[nH]c(=O)c9n8)cc7)C(=O)O)C(=O)O)C6=O)cc5)CC4)CC3)cc2)ncc1Cl (some centres unmarked) [UB-181298] |  |  |  |  |  | EC50 ([1]; 72 h): > 1000 nM; EC50 ([2]; 72 h): 4.1 nM; EC50 ([3]; 72 h): 8.8 nM; EC50 ([4]; 72 h): 273 nM; EC50 (Human Colon Cancer HT-29; 72 h): > 1000 nM
